Test results from US5863893A, “Factor VIIa inhibitors from kunitz domain proteins” (Genentech, Inc., priority 1995, dated 1999).

Tests used:
normal human plasma = experiment: Activated partial thromboplastin time (APTT) assay; format: biochemical
Procedure: For the activated partial thromboplastin time (APTT) assays, the activation time was set at 120 sec and acquisition time at 300 to 600 sec depending on the expected outcome of the assay. Citrated normal human plasma and inhibitor were incubated together. The sample (plasma and inhibitor) and activator (Instrumentation Laboratories Ellagic acid/Phospholipid mix Test Reagent) were automatically pipetted and incubated together for 2 min at 37° C., then CaCl2 was added and clotting time determined by means of optical assessment. The total incubation time of inhibitor with plasma was ca. 3 min before addition of activator, and 5 min before addition of CaCl2.

rabbit plasma = experiment: PT clotting time in rabbit plasma; format: biochemical; details: 40 μM, rabbit thromboplastin diluted two-fold
Procedure: Samples of rabbit plasma were assayed using an MLA 800 coagulometer and Dade reagents. Actin FS® was the activator in the APTT assay. Rabbit Thromboplastin with Ca++ was used for the PT assays; the rabbit thromboplastin was diluted two-fold. All mutant inhibitors tested prolonged clotting by at least one fold. […] A greater than 10 fold prolongation of the clotting time at 40 μM was observed.

[1] = system: New Zealand white rabbits; experiment: Rabbit deep medial injury model (carotid artery patency and thrombus weight); format: in vivo; details: for Clot (mgs): mean ±sem
Procedure: Male New Zealand white rabbits (~4 kg) were anesthetized to surgical anesthesia plane with an IM injection of Ketamine/Xylaxine. The rabbits were placed supine on a restraining board, warmed to 37° C., and the neck and inner thigh area shaved. Teflon catheters were replaced in a marginal ear vein and femoral artery for drug delivery and sample collection respectively. Prior to treatment, blood samples were collected for coagulation tests (APTT and PT). Bleeding time was assessed from a cut made in the cuticle portion of a hind limb nail. Incisions were made in the neck region and the entire left common carotid artery and its branches were surgically isolated. An ultrasonic flow probe (Transonics®) was placed on the common carotid approximately 5 cm caudal to the common-internal bifurcation. After blood flow reached a stable baseline, drugs (saline or test compounds) were delivered via the marginal ear vein. A deflated embolectomy catheter (Fogarty®, 3F) was then introduced into the lumen of the common via an incision in the lingual branch. Blood flow through the artery was stopped briefly while the catheter was introduced and loosely secured with 2-0 silk tie at the incision site. After the catheter was in place and secure, blood flow was restored. The deflated balloon was advanced to within 2 mm of the flow probe and inflated with saline until resistance of the vessel wall was felt. The catheter was pulled back with a steady motion to the first branch and then deflated. This procedure was repeated a total of six times for each experimental animal, after which the catheter was removed. […] Over 40 minutes, blood samples were taken for APTT and PT measurements, cuticle bleeding times were assessed and blood flow through the carotid monitored. Duration of patency was defined as the total amount of time (maximum=40 minutes) that any measurable blood flow is detected in the artery. Patency rate refers to the percentage of animals tested who had carotid artery blood flow ≥5 minutes. At the end of the experiment the rabbit was euthanized and the carotid artery removed and opened. If any thrombus was present, it was removed, blotted and the weight recorded.
[Heparin was dosed as a 25 u/kg bolus followed by a continuous infusion of 1) 0.5 u/kg/min or 2) 1 u/kg/min. Other reagents were given as a 2 mg/kg IV bolus. With the exception of the patency data, values are expressed as means ±sem.]

TF-FVIIa = TF-FVIIa (Homo sapiens, UniProt P08709); details: read-out: Ki, competitive inhibition of TF-FVIIa activity; cited from earlier work
Chain of TF-FVIIa (P08709 213-466 limits assumed): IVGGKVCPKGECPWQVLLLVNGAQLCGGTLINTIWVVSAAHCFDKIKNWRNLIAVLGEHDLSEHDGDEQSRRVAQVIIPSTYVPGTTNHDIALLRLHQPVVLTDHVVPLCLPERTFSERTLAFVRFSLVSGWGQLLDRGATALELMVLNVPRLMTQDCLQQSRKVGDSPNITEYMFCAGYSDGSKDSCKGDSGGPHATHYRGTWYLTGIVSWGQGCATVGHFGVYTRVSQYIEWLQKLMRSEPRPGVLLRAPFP
Chain of TF-FVIIa (P08709 61-212 limits assumed): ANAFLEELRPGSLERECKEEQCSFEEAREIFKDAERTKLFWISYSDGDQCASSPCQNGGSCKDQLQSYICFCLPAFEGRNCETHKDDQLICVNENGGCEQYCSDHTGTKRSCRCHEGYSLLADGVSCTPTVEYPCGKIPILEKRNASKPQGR
Chain of TF-FVIIa (P13726 33-295 partner): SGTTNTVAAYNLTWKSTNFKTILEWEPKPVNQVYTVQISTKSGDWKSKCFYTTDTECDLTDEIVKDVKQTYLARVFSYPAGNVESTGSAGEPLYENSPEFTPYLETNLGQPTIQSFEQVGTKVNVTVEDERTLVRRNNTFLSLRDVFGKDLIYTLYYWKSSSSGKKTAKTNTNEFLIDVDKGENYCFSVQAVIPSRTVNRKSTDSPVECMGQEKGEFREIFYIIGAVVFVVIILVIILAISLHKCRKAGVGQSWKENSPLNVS

TF-induced coagulation = details: cited from earlier work
[2] = 25 u/kg bolus then continuous infusion 0.5 u/kg/min
[3] = 25 u/kg bolus then continuous infusion 1 u/kg/min

## Alzheimer's amyloid β-protein precursor inhibitor (VREVCSEQAETGPCRAMISRWYFDVTEGKCAPFFYGGCGGNRNNFDTEEYCMAVCGSA) [APPI]
Normal human plasma; 40 μM inhibitor, uninhibited clotting time 31 s
  APTT clotting time, fold prolongation: 3.6 fold
Normal human plasma; ca. 7 μM inhibitor
  APTT clotting time, fold prolongation: ca. 3 fold
Rabbit plasma
  PT, fold increase over baseline: 1.4 fold
[1]; 2 mg/kg IV bolus, animals with carotid artery blood flow ≥5 minutes
  Patency (%): 40%
[1]; 2 mg/kg IV bolus, thrombus weight
  Clot (mgs): 49.5 ± 18.2 mgs

## Heparin
[1]; [2]
  Patency (%): 67%
  Clot (mgs): 13.6 ± 4.7 mgs
[1]; [3]
  Patency (%): 100%
  Clot (mgs): 19.1 ± 8.5 mgs
[1]; doses as in Table III
  patency and clot size compared to the saline control (in words): significantly prolonged patency and reduced clot size

## Bovine pancreatic trypsin inhibitor [BPTI]
TF-FVIIa
  Ki: 30 µM
TF-induced coagulation
  concentration needed to prolong the clotting time 1.4-fold in a PT assay: ca. 75 pM
